One data set has as its target T1, human cathepsin K (Homo sapiens, UniProt P43235).
T1 construct: The proform of cathepsin K was converted to mature cathepsin K by brief exposure to pH 4; made in house; host or cells: baculovirus; Trichoplusia ni High Five cells (virus raised in Sf-9)
T1 sequence (P43235 115-329): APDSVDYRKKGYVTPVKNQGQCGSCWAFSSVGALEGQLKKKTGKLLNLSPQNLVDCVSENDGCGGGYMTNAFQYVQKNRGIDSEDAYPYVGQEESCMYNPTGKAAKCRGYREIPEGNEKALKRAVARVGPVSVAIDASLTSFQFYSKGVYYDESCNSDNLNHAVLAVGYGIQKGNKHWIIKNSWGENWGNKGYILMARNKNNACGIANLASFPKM
Kind of data set: cathepsin K inhibition assay, fluorogenic substrate Cbz-Phe-Arg-AMC, progress curve method. It is filed as biochemical. Conditions: Table 1; human recombinant enzyme, pH 5.5, 30° C., 10 μM substrate; read-out: hcatK Ki. The procedure:
All assays for cathepsin K were carried out with human and rat recombinant enzyme. Assays for cathepsins S & V were also carried out with human recombinant enzyme. Assays for human cathepsins B, H, and L were carried out with enzyme, purchased from Athens Research and Technology, Inc., prepared from human liver tissue. […] A stock substrate solution of Cbz-Phe-Arg-AMC was prepared at a concentration of 50 mM in dimethyl sulfoxide. This substrate was diluted into the assay for a final substrate concentration of 10 μM in the rat cathepsin K, human cathepsin K, and human cathepsin B assays; a final substrate concentration of 5 μM in the human cathepsin L assay; and a final substrate concentration of 2 μM in the human cathepsin V assay.
All assays contained 10% dimethyl sulfoxide. […] All assays were conducted at 30° C. Product fluorescence (excitation at 360 nm; emission at 440 nm, (except cathepsin H which used excitation at 340 nm; emission at 420 nm)) was monitored with a PerSeptive Biosystems Cytofluor II fluorescence plate reader. Product progress curves were generated over 2.3 h monitoring the formation of 7-amino-4-methylcoumarin product (or β-naphthalamide for cathepsin H).
Two liters of Spodoptera frugiperda (Sf-9) cells (ATCC) were grown in Grace's Supplemented medium (Life Technologies) supplemented with 2 g/L glucose, 10% fetal bovine serum (HyClone) and 0.1% pluronic F-68 (Life Technologies). […] The cells continued to grow for 72 h post-infection, before the virus was harvested by centrifugation at 1400×g for 30 min.
One and one-half liters of Trichoplusia ni (T. ni) High Five (™) cells [JRH Biosciences, Woodland, Calif. […] Media were separated from cells at a rate of 1 L/min using the Centritech 100 (™) continuous-flow centrifuge (DuPont) operating at 200×g.
Protein Purification: Media (human and rat) were filtered through a Whatman 3 filter, and then loaded onto a 25 mL Poros HS II (26 mm×47 mm) cation exchange column equilibrated in 25 mM sodium acetate at pH 5.5 (equilibration buffer). The column was washed until the absorbance reached the baseline value, and then the protein was eluted with a linear gradient from 0-2 M sodium chloride in the equilibration buffer. Column fractions were analyzed by SDS-PAGE, N-terminal sequencing, and mass spectrometry. Fractions containing the proform of cathepsin K were pooled and frozen at −80° C. The proform was concentrated in an Amicon Centriprep 10 and fractionated with a Superdex 75 column (26 mm×600 mm, Pharmacia) equilibrated in 400 mM sodium chloride, 25 mM sodium acetate at pH 5.5.
Cathepsin K Activation: The proform of cathepsin K was converted to mature cathepsin K by brief exposure to pH 4 in the presence of 5 mM L-cysteine. Typically, 5 mM L-cysteine was added to 10 mL of approximately 1 mg/mL procathepsin K. One mL of this solution was diluted ten-fold into 450 mM sodium acetate at pH 4.0 containing 5 mM L-cysteine. This solution was reacted at 23° C. for 2 min before neutralization with 2 mL 1.8 M sodium acetate at pH 6.0. The neutralized sample was added to the remaining 9 mL of procathepsin K. The mixture was incubated at 4° C. for 2-3 days. The activated cathepsin K was chromatographed on a Poros HS II column as described above.
Potential inhibitors were evaluated using the progress curve method. Assays were carried out in the presence of variable concentrations of test compound. Reactions were initiated by addition of buffered solutions of inhibitor and substrate to enzyme. Data analysis was conducted according to one of two procedures depending on the appearance of the progress curves in the presence of inhibitors. […] Ki values were calculated from IC50 values using equation 2 assuming a competitive model.

The structures appear in SMILES notation.

Broadly, the Ki is a measure of affinity in units of concentration, obtained from inhibition or displacement. For orientation: melting point means the temperature of the solid-liquid transition. Compound `CCCC[C@H](NC(=O)OCC1(Cc2ccccc2)CCC1)C(=O)C(=O)N[C@H](C)c1ccccc1` [Example 5, (1-Benzylcyclobutyl)methyl(1S)-1-(oxo{[(1R)-1-phenylethyl]amino}acetyl)pentylcarbamate] had a melting point of 96 to 98 °C. Further, the Ki at human cathepsin K was in the range of 1 to 10 nM.
For `CCCC[C@H](NC(=O)OCC1(CCc2ccccc2)CCC1)C(=O)C(=O)N[C@H](C)c1ccccc1` [Example 6, [1-(2-Phenylethyl)cyclobutyl]methyl(1S)-1-(oxo{[(1R)-1-phenylethyl]amino}acetyl)pentylcarbamate] the same measures were 86 to 88 °C and 10 to 100 nM.
The corresponding values for `CCCC[C@H](NC(=O)OCC1(CCCc2ccccc2)CCC1)C(=O)C(=O)N[C@H](C)c1ccccc1` [Example 7, [1-(3-Phenylpropyl)cyclobutyl]methyl(1S)-1-(oxo{[(1R)-1-phenylethyl]amino}acetyl)pentylcarbamate] are 91 to 93 °C and 10 to 100 nM.
In the case of `CCCC[C@H](NC(=O)OCC1(Cc2ccccc2)CCCC1)C(=O)C(=O)N[C@H](C)c1ccccc1` [Example 8, (1-Benzylcyclopentyl)methyl(1S)-1-(oxo{[(1R)-1-phenylethyl]amino}acetyl)pentylcarbamate], the melting point was 108 to 110 °C. On human cathepsin K, the inhibition constant Ki was 10 to 100 nM.
For `CCCC[C@H](NC(=O)OCC1(CSc2nccn2-c2ccccc2)CCC1)C(=O)C(=O)N[C@H](C)c1ccccc1` [Example 28, (1-{[(1-phenyl-1H-imidazol-2-yl)sulfanyl]methyl}cyclobutyl)methyl (1S)-1-(oxo{[(1R)-1-phenylethyl]amino}acetyl)pentylcarbamate], the Ki on human cathepsin K was in the range of 10 to 100 nM.
Still for that read-out and setting: as for `CCCC[C@H](NC(=O)OCC1(COc2ncnc3ccsc23)CCC1)C(=O)C(=O)N[C@H](C)c1ccccc1` [Example 29, {1-[(thieno[3,2-d]pyrimidin-4-yloxy)methyl]cyclobutyl}methyl (1S)-1-(oxo{[(1R)-1-phenylethyl]amino}acetyl)pentylcarbamate], the figure is 10 to 100 nM; as for `CCCC[C@H](NC(=O)OCC1(COc2ncccn2)CCC1)C(=O)C(=O)N[C@H](C)c1ccccc1` [Example 30, {1-[(2-pyrimidinyloxy)methyl]cyclobutyl}methyl (1S)-1-(oxo {[(1R)-1-phenylethyl]amino}acetyl)pentylcarbamate], 100 to 1000 nM.
The same measure, in the same setting: as for `CCCC[C@H](NC(=O)OCC1(COc2nc(-c3ccc(C)cc3)cs2)CCC1)C(=O)C(=O)N[C@H](C)c1ccccc1` [Example 31, [1-({[4-(4-methylphenyl)-1,3-thiazol-2-yl]oxy}methyl)cyclobutyl]methyl (1S)-1-(oxo{[(1R)-1-phenylethyl]amino}acetyl)pentylcarbamate], the figure is 100 to 1000 nM; as for `CCCC[C@H](NC(=O)OCC1(CSc2nccc(-c3ccc(Cl)cc3)n2)CCC1)C(=O)C(=O)N[C@H](C)c1ccccc1` [Example 33, [1-({[4-(4-chloro phenyl)-2-pyrimidinyl]sulfanyl}methyl)cyclobutyl]methyl (1S)-1-(oxo{[(1R)-1-phenylethyl]amino}acetyl)pentylcarbamate], 1 to 10 nM; as for `CCCC[C@H](NC(=O)OCC1(CSc2ncc(-c3ccc(Cl)cc3)n2C)CCC1)C(=O)C(=O)N[C@H](C)c1ccccc1` [Example 34, [1-({[5-(4-chlorophenyl)-1-methyl-1H-imidazol-2-yl]sulfanyl}methyl)cyclobutyl]methyl (1S)-1-(oxo{[(1R)-1-phenylethyl]amino}acetyl)pentylcarbamate], 100 to 1000 nM.
Regarding `CCCC[C@H](NC(=O)OCC1(CCSc2nccn2C)CCC1)C(=O)C(=O)N[C@H](C)c1ccccc1` [Example 36, (1-{2-[(1-methyl-1H-imidazol-2-yl)sulfanyl]ethyl}cyclobutyl)methyl (1S)-1-(oxo{[(1R)-1-phenylethyl]amino}acetyl)pentylcarbamate], the Ki on human cathepsin K is over 1000 nM.
With `CCCC[C@H](NC(=O)OCC1(CCCSc2nccn2C)CCC1)C(=O)C(=O)N[C@H](C)c1ccccc1` [Example 37, (1-{3-[(1-methyl-1H-imidazol-2-yl)sulfanyl]propyl}cyclobutyl)methyl (1S)-1-(oxo{[(1R)-1-phenylethyl]amino}acetyl)pentylcarbamate], on human cathepsin K, the Ki was over 1000 nM.
Consider `CCCC[C@H](NC(=O)OCC1(CCCOc2ccnc(Cl)n2)CCC1)C(=O)C(=O)N[C@H](C)c1ccccc1` [Example 38, (1-{3-[(2-chloro-4-pyrimidinyl)oxy]propyl}cyclobutyl)methyl (1S)-1-(oxo{[(1R)-1-phenylethyl]amino}acetyl)pentylcarbamate], for which, on human cathepsin K, the Ki is over 1000 nM.

Source of the values: patent US7282512B2, “Cycloalkyl ketoamides derivatives useful as cathepsin K inhibitors” (SmithKline Beecham Corporation, priority 2002, dated 2007).
